Source: patent US6677302B2, “Compositions and methods for the treatment of viral disorders” (The Trustees of Boston University, priority 1996, dated 2004)
Entries after “also recorded” stand apart in the source; their conditions may differ.

Key:
[1] = tested on: Human Neuroblastoma Cell Line, SK-N-MC; experiment: Proliferation of neuroblastoma cells, 4 weeks continuous exposure; format: cell-based; details: no treatment 1 × 10^8
Description: Human neuroblastoma cell line SK-N-MC was studied under different conditions. In this case, the cells were grown for 4 weeks with continuous exposure to sodium butyrate or arginine butyrate, and the cell number was quantitated at the end of this time.

[2] = tested on: K562; experiment: DNA fragmentation by flow cytometry; format: cell-based, human; details: alone, FIG. 3
Text: It has been shown that sodium butyrate can induce apoptosis in human tumors or tumor cell lines (L. A. Noorduyn et al., Histopathology 21:59, 1992).

[3] = tested on: EBV-TK MRNA; experiment: EBV-TK mRNA dose response experiments; format: cell-based; details: in vitro
Description: (§1) In vitro, peaks induction of EBV-TK plateaus at serum level of around 1 mM. […] Therefore, dose levels up to 2,000 mg/kg/day, were evaluated in an attempt to reach serum levels of 1 mM. Treatment cycles were of 4 week duration, with 3 weeks on treatment and one week off. Patients were given the standard dose of GCV throughout each 21 day course of arginine butyrate, starting, however, on day 0. Arginine butyrate was given by continuous IV infusion at 500 mg/kg/day for 2 days, at 1,000 mg/kg/day for 2 days, at 1,500 mg/kg/day for 2 days, and thereafter at 2,000 mg/kg/day, or as tolerated, for the rest of the 21 day course. Cycle 2 was begun on Day 29. Patients were given a complete tumor evaluation after every course with subsequent cycles emitted unless disease progressed.
In some experiments sodium was used instead of arginine to neutralize butyric acid. In dose response experiments, levels of EBV-TK MRNA plateaus at around 1 mM to 3 mM sodium butyrate, inducing levels essentially equivalent to those induced by 1 mM arginine butyrate. […] Similarly, levels of GCV above 30 μM were generally cytocidal to both to EBV+ and EBV− cell lines. Cell lines used were X50-7, a latent EBV+ B-cell lymphoma; Akata, a producer EBV+ Burkitt's lymphoma; HPB-ALL, a T-cell line; and Nalm-6, an EBV− B-cell line. […]

[4] = European pharmacokinetic studies; 500 mls of a 5% solution; two normal volunteers; cited from earlier work
[5] = Clinical toxicity in patients; format: in vivo, human; details: for grade 3 or 4 toxicities: patients treated up to 2,000 mg/kg/day
Description: (§2) Clinical experience with butyrates have been performed in children with acute myelogenous leukemia in Israel, and in children with neuroblastoma (K. Prasad, Life Sci. 27:1351-58, 1980). […] Eleven pediatric patients and twelve adults with β-hemoglobinopathies were treated with IV arginine butyrate at a starting dose of 500 mg/kg/day for 2-7 weeks. If no side effects were noted, the rate was increased by 250 mg/kg/day to a final rate of 1500 mg/kg/day in 4 patients, and 2000 mg/kg/day in 2 patients. […] This rise in BUN returned to normal within 12 hours of discontinuation of drug, and is thought to be secondary to effect of arginine upon ureagenesis. […] Peak serum levels of butyrate ranged between 0.04-0.05 mM, and butyrate was not detectable 15 minutes after infusion was discontinued. Plasma arginine levels were also rapidly cleared, with a T1/2 of 15 minutes, and baseline arginine levels were reached within 12 hours after discontinuation of infusion.
(§3) Three patients with refractory neoplasms (breast, melanoma, adenocarcinoma, of unknown primary) have been enrolled and completed 1-2 cycles of arginine butyrate as a dose of 500 mg/kg/day over 6-8 hours for 10 days.
(§4) Three patients (with breast cancer, bowel cancer or Hodgkins disease) have completed two cycles of arginine butyrate at a dose of 750 mg/kg/day for 10 days. […] Otherwise, there was no other objective measures of organ progressed after treatment was topped. […] There was a further resolution of the disease during the second cycle. Disease progression was noted one month after second cycle was completed. At 1000 mg/kg/day, 3 patients have been enrolled on study.
(§5) An inter-group dose-escalation study is being conducted in patients with refractory malignancies. There are 3 patients per group with the dose levels starting at 500 mg/kg/day, and increasing by 250 mg/kg/day per group, if toxicity permits. Doses are given by 8 hour IV infusion, daily, for 5 days times 2 weeks, with weekends off, for a total of 10 days of treatment per cycle.

[6] = tested on: EBV+ and EBV− cell lines (X50-7, Akata, HPB-ALL, Nalm-6); experiment: Growth of EBV+ and EBV− cell lines; format: cell-based, human
Text: In some experiments sodium was used instead of arginine to neutralize butyric acid. […] Cell lines used were X50-7, a latent EBV+ B-cell lymphoma; Akata, a producer EBV+ Burkitt's lymphoma; HPB-ALL, a T-cell line; and Nalm-6, an EBV− B-cell line. Growth curves for X50-7 cells in different concentrations of sodium butyrate are shown in FIG. 8b and the growth curves for HPB-ALL cells in different concentrations of sodium butyrate are shown in FIG. 8c.

[7] = tested on: refractory neoplasms; experiment: Tumor response in patients with refractory neoplasms; format: in vivo, human
Description: as §3, §4, §5

[8] = Clinical pharmacokinetics of butyrate infusion; format: in vivo, human; details: patients with β-hemoglobinopathies
Description: as §2
Butyric acid is a short chain fatty acid present in foods such as dairy products. Arginine is an amino acid which is commonly used in hyperalimentation solutions in hospitals throughout the country. Butyric acid was obtained from Aldrich, catalog number W-212. L-Arginine is anhydrous. Arginine was combined with butyric acid, pH 5.0-5.5, in sterile, non-pyrogenic water for injection to neutralize the fatty acid. The solution was filtered through a Millipore System at a final concentration for injection of 100 mg/ml or 25 mg/ml. Each lot was pyrogen tested and tested for sterility and purity. […] Since 10% arginine butyrate solution is hypertonic (100 mg/ml), it must be infused through a long or deep IV access to avoid peripheral venous irritation. Arginine butyrate was infused via an infusion pump. European pharmacokinetic studies of arginine butyrate given as a “slow” and 90 minute bolus of 500 mls of a 5% solution (2.5 g/M in two normal volunteers, and found a 15 minute elimination period. Plasma levels from patients with hemoglobinopathies have shown that butyric acid disappears within 5 to 15 minutes after an infusion of up to 2,000 mg/kg/day.
as §1, with “Patients were given a complete tumor evaluation after every course with subsequent cycles emitted unless disease progressed.” left out

Substance: arginine butyrate
- Cell Number ([1]; 0.05 mM): 1 × 10^5
- Cell Number ([1]; 1.0 mM): <1 × 10 ^3
- DNA fragmentation and cellular shrinkage [2]: DNA fragmentation and cellular shrinkage
- level at which peak induction of EBV-TK plateaus [3]: around 1 mM
- elimination period [4]: 15 min
- patients with grade 1 nausea/vomiting ([5]; 500 mg/kg/day, three patients): Two of the three patients
- patients with grade I nausea/vomiting ([5]; 750 mg/kg/day for 10 days, three patients): One of the three patients; also recorded: One, of the three patients
- serum BUN ([5]; 750 mg/kg/day, one patient): transient elevation of serum BUN
- time to resolution of BUN elevation and proteinuria after discontinuation ([5]; 750 mg/kg/day, one patient): ≤ 5 days
- toxic side effects ([5]; adults, IV infusion of similar doses): no toxic side effects
- grade 3 or 4 toxicities ([5]; listed as Arginine butyrate): no grade 3 and no grade 4 toxicities reported
- grade 3 or 4 toxicities ([5]; listed as arginine butyrate): no grade 3 or 4 toxicities
- organ specific toxicity ([5]; recorded by principal investigators): No organ specific toxicity was recorded
- objective toxicities (hepatic, renal, cardiac, pulmonary, hematopoietic) ([5]; refractory neoplasms, 500 mg/kg/day over 6-8 hours for 10 days): no objective toxicities noted
- untoward side effects ([5]; three cancer patients, emergency basis, up to 2,000 mg/kg/day, 10 days): no untoward side effects noted
- side effect: anorexia ([5]; β-hemoglobinopathies, IV 500-2000 mg/kg/day): Transient anorexia developed in one patient
- side effect: serum aminotransferase ([5]; β-hemoglobinopathies, IV 500-2000 mg/kg/day, 2-7 weeks): transient, slight rise in serum aminotransferase
- time for rise in BUN to return to normal after discontinuation ([5]; β-hemoglobinopathies, continuous infusion over 2 weeks): ≤ 12 h
- effect on cell growth ([6]; 1 mM): cytostatic to some cell lines and permitted normal cell growth in others
- effect on cell growth ([6]; 2 mM and 3 mM): cytocidal to most EBV+ and EBV− cell lines
- objective tumor responses ([7]; 500 mg/kg/day, three patients, 1-2 cycles): No objective tumor responses were noted
- stable disease ([7]; 750 mg/kg/day, after two cycles): Two patients had stable disease after two cycles
- partial response, reduction in tumor area ([7]; 750 mg/kg/day, patient with Hodgkin's disease, after first cycle): > 80%
- Plasma arginine T1/2 ([8]; IV): 15 min
- time after discontinuation of infusion at which butyrate was not detectable ([8]; IV): 15 min
- time to baseline arginine levels after discontinuation of infusion ([8]; IV): ≤ 12 h
- Peak serum levels of butyrate ([8]; IV 500 up to 2000 mg/kg/day): 0.04 to 0.05 mM
